Results as given in US10308645B2, “Piperidine oxadiazole and thiadiazole orexin receptor antagonists” (MERCK SHARP & DOHME CORP., priority 2014, dated 2019).
pIC50: −log10 of the molar value.

Assays:
human orexin-2 receptor = human orexin-2 receptor (Homo sapiens (Human), UniProt O43614); assay: FLIPR Ca2+ Flux Assay, hOX2R; format: cell-based; conditions: CHO cells expressing the receptor; agonist Ala-6,12 human orexin-A
Protocol: The utility of the compounds in accordance with the present invention as orexin receptor OX1R and/or OX2R antagonists may be readily determined without undue experimentation by methodology well known in the art, including the “FLIPR Ca^2+ Flux Assay” (Okumura et al., Biochem. Biophys. Res. Comm. 280:976-981, 2001). In a typical experiment the OX1 and OX2 receptor antagonistic activity of the compounds of the present invention was determined in accordance with the following experimental method. For intracellular calcium measurements, Chinese hamster ovary (CHO) cells expressing the rat orexin-1 receptor or the human orexin-2 receptor, are grown in Iscove's modified DMEM containing 2 mM L-glutamine, […], 1% hypoxanthine-thymidine supplement, 100 U/ml penicillin, 100 μg/ml streptomycin and 10% heat-inactivated fetal calf serum (FCS). The cells are seeded at 20,000 cells/well into Becton-Dickinson black 384-well clear bottom sterile plates coated with poly-D-lysine. All reagents were from GIBCO-Invitrogen Corp. The seeded plates are incubated overnight at 37° C. and 5% CO2. Ala-6,12 human orexin-A as the agonist is prepared as a 1 mM stock solution in 1% bovine serum albumin (BSA) and diluted in assay buffer (HBSS containing 20 mM HEPES, 0.1% BSA and 2.5 mM probenecid, pH7.4) for use in the assay at a final concentration of 70 pM. Test compounds are prepared as 10 mM stock solution in DMSO, then diluted in 384-well plates, first in DMSO, then assay buffer. On the day of the assay, cells are washed 3 times with 100 μl assay buffer and then incubated for 60 min (37° C., 5% CO2) in 60 μl assay buffer containing 1 μM Fluo-4AM ester, 0.02% pluronic acid, and 1% BSA. The dye loading solution is then aspirated and cells are washed 3 times with 100 μl assay buffer. 30 μl of that same buffer is left in each well. Within the Fluorescent Imaging Plate Reader (FLIPR, Molecular Devices), test compounds are added to the plate in a volume of 25 μl, incubated for 5 min and finally 25 μl of agonist is added. Fluorescence is measured for each well at 1 second intervals for 5 minutes and the height of each fluorescence peak is compared to the height of the fluorescence peak induced by […] Ala-6,12 orexin-A with buffer in place of antagonist. For each antagonist, IC50 value (the concentration of compound needed to inhibit 50% of the agonist response) is determined. Alternatively, compound potency can be assessed by a radioligand binding assay (described in Bergman et. al. Bioorg. Med. Chem. Lett. 2008, 18, 1425-1430) in which the inhibition constant (Ki) is determined in membranes prepared from CHO cells expressing either the OX1 or OX2 receptor. The intrinsic orexin receptor antagonist activity of a compound which may be used in the present invention may be determined by these assays.

[1] = target: hOX1R (orexin-1 receptor) (Homo sapiens, UniProt O43613); assay: FLIPR Ca2+ Flux Assay, hOX1R; format: cell-based; conditions: CHO cells expressing the receptor; agonist Ala-6,12 human orexin-A

Sequence of human orexin-2 receptor (O43614 whole entry): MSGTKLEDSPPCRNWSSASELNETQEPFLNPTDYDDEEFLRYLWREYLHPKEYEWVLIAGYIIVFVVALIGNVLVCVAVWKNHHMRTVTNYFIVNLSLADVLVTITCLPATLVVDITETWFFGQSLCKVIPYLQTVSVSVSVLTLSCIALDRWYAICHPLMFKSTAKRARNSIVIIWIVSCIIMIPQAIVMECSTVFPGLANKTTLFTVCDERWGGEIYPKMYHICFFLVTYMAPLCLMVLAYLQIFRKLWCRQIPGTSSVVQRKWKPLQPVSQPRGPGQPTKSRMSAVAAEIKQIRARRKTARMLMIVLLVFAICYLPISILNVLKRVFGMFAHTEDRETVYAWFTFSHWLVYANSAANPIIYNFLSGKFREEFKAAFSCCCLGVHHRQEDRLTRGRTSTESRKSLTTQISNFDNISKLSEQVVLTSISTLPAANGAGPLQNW

SMILES	pIC50 (human orexin-2 receptor)	pIC50 [1]
C[C@@H]1CC[C@@H](c2noc(C(C)(C)O)n2)CN1C(=O)c1ccc(F)cc1-n1nccn1 [Example 21, 2-{3-[(3R,6R)-1-{[4-Fluoro-2-(2H-1,2,3-triazol-2-yl)phenyl]carbonyl}-6-methylpiperidin-3-yl]-1,2,4-oxadiazol-5-yl}propan-2-ol]	7.36	< 5.00
C[C@@H]1CC[C@@H](c2noc(C(C)(C)O)n2)CN1C(=O)c1ccsc1-c1ncccn1 [Example 22, 2-(3-{(3R,6R)-6-methyl-1-[(2-pyrimidin-2-ylthiophen-3-yl)carbonyl]piperidin-3-yl}-1,2,4-oxadiazol-5-yl)propan-2-ol]	7.21	< 5.00
C[C@@H]1CC[C@@H](c2noc(C(C)(C)O)n2)CN1C(=O)c1ccccc1-c1ncccn1 [Example 23, 2-(3-{(3R,6R)-6-Methyl-1-[(2-pyrimidin-2-ylphenyl)carbonyl]piperidin-3-yl}-1,2,4-oxadiazol-5-yl)propan-2-ol]	7.20	< 5.00
C[C@@H]1CC[C@@H](c2noc(C(C)(C)O)n2)CN1C(=O)c1cscc1-c1ncccn1 [Example 24, 2-(3-{(3R,6R)-6-methyl-1-[(4-pyrimidin-2-ylthiophen-3-yl)carbonyl]piperidin-3-yl}-1,2,4-oxadiazol-5-yl)propan-2-ol]	7.12	< 5.00
C[C@@H]1CC[C@@H](c2nc(C(C)(C)C)no2)CN1C(=O)c1ccccc1-n1nccn1 [Example 25, (2R,5R)-5-(3-tert-Butyl-1,2,4-oxadiazol-5-yl)-2-methyl-1-{[2-(2H-1,2,3-triazol-2-yl)phenyl]carbonyl}piperidine]	7.06	5.94
CC(C)c1noc([C@@H]2CC[C@@H](C)N(C(=O)c3ccccc3-n3nccn3)C2)n1 [Example 26, (2R,5R)-2-methyl-5-[3-(1-methylethyl)-1,2,4-oxadiazol-5-yl]-1-{[2-(2H-1,2,3-triazol-2-yl)phenyl]carbonyl}piperidine]	6.91	5.35
C[C@@H]1CC[C@@H](c2nc(C(C)(C)O)no2)CN1C(=O)c1ccccc1-n1nccn1 [Example 27, 2-{5-[(3R,6R)-6-methyl-1-{[2-(2H-1,2,3-triazol-2-yl)phenyl]carbonyl}piperidin-3-yl]-1,2,4-oxadiazol-3-yl}propan-2-ol]	7.12	< 5.00
C[C@@H]1CC[C@@H](c2nc(C3CC3)no2)CN1C(=O)c1ccccc1-n1nccn1 [Example 28, (2R,5R)-5-(3-cyclopropyl-1,2,4-oxadiazol-5-yl)-2-methyl-1-{[2-(2H-1,2,3-triazol-2-yl)phenyl]carbonyl}piperidine]	6.46	< 5.00
C[C@@H]1CC[C@@H](c2nsc(C(C)(C)O)n2)CN1C(=O)c1ccsc1-n1nccn1 [Example 29, 2-{3-[(3R,6R)-6-Methyl-1-{[2-(2H-1,2,3-triazol-2-yl)thiophen-3-yl]carbonyl}piperidin-3-yl]-1,2,4-thiadiazol-5-yl}propan-2-ol]	7.06	< 5.00
CC(C)Oc1ncccc1C(=O)N1C[C@H](c2nsc(C(C)(C)O)n2)CC[C@H]1C [Example 30, 2-{3-[(3R,6R)-6-methyl-1-{[2-(1-methylethoxy)pyridin-3-yl]carbonyl}piperidin-3-yl]-1,2,4-thiadiazol-5-yl}propan-2-ol]	6.53	< 5.00
C[C@@H]1CC[C@@H](c2nsc(C(C)(C)O)n2)CN1C(=O)c1cscc1-n1nccn1 [Example 31, 2-{3-[(3R,6R)-6-methyl-1-{[4-(2H-1,2,3-triazol-2-yl)thiophen-3-yl]carbonyl}piperidin-3-yl]-1,2,4-thiadiazol-5-yl}propan-2-ol]	6.96	< 5.00
C[C@@H]1CC[C@@H](c2nsc(C(C)(C)O)n2)CN1C(=O)c1ccccc1C1(C#N)CC1 [Example 32, 1-[2-({(2R,5R)-5-[5-(1-hydroxy-1-methylethyl)-1,2,4-thiadiazol-3-yl]-2-methylpiperidin-1-yl}carbonyl)phenyl]cyclopropane-carbonitrile]	7.74	5.62
C[C@@H]1CC[C@@H](c2nsc(C(C)(C)O)n2)CN1C(=O)c1ccccc1CS(C)(=O)=O [Example 33, 2-{3-[(3R,6R)-6-methyl-1-({2-[(methylsulfonyl)methyl]phenyl}carbonyl)piperidin-3-yl]-1,2,4-thiadiazol-5-l}propan-2-ol]	6.71	< 5.00
C[C@@H]1CC[C@@H](c2nsc(C(C)(C)O)n2)CN1C(=O)c1ccccc1-n1ncnn1 [Example 34, 2-{3-[(3R,6R)-6-methyl-1-{[2-(2H-tetrazol-2-yl)phenyl]carbonyl}piperidin-3-yl]-1,2,4-thiadiazol-5-yl}propan-2-ol]	6.47	< 5.00
C[C@@H]1CC[C@@H](c2nsc(C(C)(C)O)n2)CN1C(=O)c1ccccc1-n1nccn1 [Example 35, 2-{3-[(3R,6R)-6-methyl-1-{[2-(2H-1,2,3-triazol-2-yl)phenyl]carbonyl}piperidin-3-yl]-1,2,4-thiadiazol-5-yl}propan-2-ol]	7.57	5.62
C[C@@H]1CC[C@@H](c2nsc(C(C)(C)O)n2)CN1C(=O)c1ccccc1OC(F)F [Example 36, 2-{3-[(3R,6R)-1-{[2-(difluoromethoxy)phenyl]carbonyl}-6-methylpiperidin-3-yl]-1,2,4-thiadiazol-5-yl}propan-2-ol]	6.61	< 5.00
CCOc1ccccc1C(=O)N1C[C@H](c2nsc(C(C)(C)O)n2)CC[C@H]1C [Example 37, 2-(3-{(3R,6R)-1-[(2-ethoxyphenyl)carbonyl]-6-methylpiperidin-3-yl}-1,2,4-thiadiazol-5-yl)propan-2-ol]	6.84	< 5.00
C[C@@H]1CC[C@@H](c2nsc(C(C)(C)O)n2)CN1C(=O)c1ccccc1OC(F)(F)F [Example 39, 2-{3-[(3R,6R)-6-methyl-1-{[2-(trifluoromethoxy)phenyl]carbonyl}piperidin-3-yl]-1,2,4-thiadiazol-5-yl}propan-2-ol]	7.28	5.19
C[C@@H]1CC[C@@H](c2nsc(C(C)(C)O)n2)CN1C(=O)c1ccsc1-c1ncccn1 [Example 40, 2-(3-{(3R,6R)-6-Methyl-1-[(2-pyrimidin-2-ylthiophen-3-yl)carbonyl]piperidin-3-yl}-1,2,4-thiadiazol-5-yl)propan-2-ol]	7.30	5.00
C[C@@H]1CC[C@@H](c2nsc(C(C)(C)O)n2)CN1C(=O)c1ccccc1-c1ncccn1 [Example 41, 2-(3-{(3R,6R)-6-Methyl-1-[(2-pyrimidin-2-ylphenyl)carbonyl]piperidin-3-yl}-1,2,4-thiadiazol-5-yl)propan-2-ol]	7.32	< 5.00
C[C@@H]1CC[C@@H](c2nsc(C(C)(C)O)n2)CN1C(=O)c1cscc1-c1ncccn1 [Example 42, 2-(3-{(3R,6R)-6-methyl-1-[(4-pyrimidin-2-ylthiophen-3-yl)carbonyl]piperidin-3-yl}-1,2,4-thiadiazol-5-yl)propan-2-ol]	7.08	< 5.00
COC(C)(C)c1nc([C@@H]2CC[C@@H](C)N(C(=O)c3ccccc3-n3nccn3)C2)ns1 [Example 43, (2R,5R)-5-[5-(1-methoxy-1-methylethyl)-1,2,4-thiadiazol-3-yl]-2-methyl-1-{[2-(2H-1,2,3-triazol-2-yl)phenyl]carbonyl}piperidine]	7.41	5.85
